Where a name gives a salt, the structure may show the parent alone.

These results are taken from patent publication US20250262186A1 (SANOFI, priority 2022, published 2025).

The first experiment concerns the target T1, ERα (Homo sapiens, UniProt P03372).
T1 construct: made using a breast cancer cell ERα in cell western assay; host or cells: MCF7
T1 sequence (P03372 1-595): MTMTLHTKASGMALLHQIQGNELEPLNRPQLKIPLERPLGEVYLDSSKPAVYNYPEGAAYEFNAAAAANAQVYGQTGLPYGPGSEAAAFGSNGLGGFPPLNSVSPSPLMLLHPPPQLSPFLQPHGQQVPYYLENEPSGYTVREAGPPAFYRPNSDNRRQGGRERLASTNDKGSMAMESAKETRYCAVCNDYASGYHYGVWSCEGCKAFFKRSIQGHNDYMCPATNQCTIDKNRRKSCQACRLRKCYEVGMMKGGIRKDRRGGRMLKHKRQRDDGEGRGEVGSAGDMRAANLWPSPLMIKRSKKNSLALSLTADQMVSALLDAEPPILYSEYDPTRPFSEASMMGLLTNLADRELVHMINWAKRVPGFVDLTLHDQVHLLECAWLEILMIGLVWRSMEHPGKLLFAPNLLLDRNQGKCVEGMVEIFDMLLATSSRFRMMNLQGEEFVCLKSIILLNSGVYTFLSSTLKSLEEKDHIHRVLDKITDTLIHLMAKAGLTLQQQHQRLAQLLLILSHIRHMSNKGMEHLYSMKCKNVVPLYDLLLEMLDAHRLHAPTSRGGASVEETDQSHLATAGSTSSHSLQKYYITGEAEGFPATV
Put plainly: Estrogen receptor degradation activity: breast cancer cell ERα in cell western assay in MCF7 cells. The class given is cell-based. The settings on record: 0.3 μM, 4 hours, relative to fulvestrant 0.1 μM positive control. As to the method:
Said test involves measuring the in vitro degradation activity of the compounds of the Table 1a.
The measurements of the degradation activities were made using a breast cancer cell ERα in cell western assay as described hereunder.
MCF7 cells (ATCC) were seeded in 384 wells microplate (collagen coated) at a concentration of 10000 cells/30 μL per well in red phenol free MEM alpha medium (invitrogen) containing 5% charcoal dextran striped FBS. The following day, 9 points serial 1:5 dilution of each compound was added to the cells in 2.5 μL at final concentrations ranging from 0.3-0.0000018 μM (in table 2), or 0.1 μM for fulvestrant (using as positive control). At 4 hours post compound addition the cells were fixed by adding 25 μL of formalin (final concentration 5% formalin containing 0.1% triton) for 10 minutes at room temperature and then washed twice with PBS. Then, 50 μL of LI-COR blocking buffer containing 0.1% Triton was added to plate for 30 minutes at room temperature. LI-COR blocking buffer was removed and cells were incubated overnight at cold room with 50 μL anti-ER rabbit monoclonal antibody (Thermo scientific MA1-39540) diluted at 1:1000 in LI-COR blocking buffer containing 0.1% tween-20. Wells which were treated with blocking buffer but no antibody were used as background control. Wells were washed twice with PBS (0.1% tween-20) and incubated at 37° C. for 60 minutes in LI-COR (0.1% tween-20) containing goat anti-rabbit antibody Alexa 488 (1:1000) and Syto-64 a DNA dye (2 μM final concentration). Cells were then washed 3 times in PBS and scanned in ACUMEN explorer (TTP-Labtech). Integrated intensities in the green fluorescence and red fluorescence were measured to determine the levels of ERα and DNA respectively.
The degradation activity with respect to estrogen receptors in this test is given by the concentration which degrades 50% of the estrogen receptor (or IC50) in nM.
The % of ERα levels decrease were determined as follows: % inhibition=100*(1−(sample−fulvestrant: DMSO−fulvestrant)).
Turning to `Cl.O=C(O)c1ccc2c(c1)CCCC(c1ccccc1Cl)=C2c1cccc(OC2CN(CCCF)C2)c1` [Compound 29, 8-(2-chlorophenyl)-9-(3-((1-(3-fluoropropyl)azetidin-3-yl)oxy)phenyl)-6,7-dihydro-5H-benzo[7]annulene-3-carboxylic acid hydrochloride], the “% Degradation At 0.3 μM” value stood at 57%.
Regarding `CC1CCC(C2=C(c3cccc(OC4CCN(CCCF)C4)c3)c3ccc(C(=O)O)cc3CCC2)CC1` (single isomer, unassigned; isomer 1) [Compound 11], the “% Degradation At 0.3 μM” value was determined as 76%.
In the case of `O=C(O)c1ccc2c(c1)CCCC(c1ccc(Cl)cc1F)=C2c1cccc(O[C@@H]2CCN(CCCF)C2)c1` [Compound 6, (R)-8-(4-chloro-2-fluorophenyl)-9-(3-((1-(3-fluoropropyl)pyrrolidin-3-yl)oxy)phenyl)-6,7-dihydro-5H-benzo[7]annulene-3-carboxylic acid], the “% Degradation At 0.3 μM” value stood at 89%.
On the same count and under the same terms, under `FCCCN1CC[C@@H](Oc2cccc(C3=C(c4ccccc4Cl)CCCc4ccccc43)c2)C1` [Compound 39, (R)-3-(3-(8-(2-chlorophenyl)-6,7-dihydro-5H-benzo[7]annulen-9-yl)phenoxy)-1-(3-fluoropropyl)pyrrolidine] stands 78%; under `O=C(O)c1ccc2c(c1)CCCC(c1ccccc1Cl)=C2c1cc(O[C@@H]2CCN(CCCF)C2)ccc1F` [Compound 26, (R)-8-(2-chlorophenyl)-9-(2-fluoro-5-((1-(3-fluoropropyl)pyrrolidin-3-yl)oxy)phenyl)-6,7-dihydro-5H-benzo[7]annulene-3-carboxylic acid, hydrochloride], 90%; under `Cc1ccc(O[C@@H]2CCN(CCCF)C2)cc1C1=C(c2ccc(Cl)cc2Cl)CCCc2cc(C(=O)O)ccc21` [Compound 24], 61%.
Same read-out and setting: the same measure for `Oc1ccc2c(c1)SCCC(c1ccc(Cl)cc1Cl)=C2c1cccc(O[C@@H]2CCN(CCCF)C2)c1` [Compound 41, (R)-4-(2,4-dichlorophenyl)-5-(3-((1-(3-fluoropropyl)pyrrolidin-3-yl)oxy)phenyl)-2,3-dihydrobenzo[b]thiepin-8-ol]: 75%.
Consider `Cl.O=C(O)c1ccc2c(c1)CCCC(c1ccccc1)=C2c1cc(O[C@@H]2CCN(CCCF)C2)ccc1F` [Compound 25, (R)-9-(2-fluoro-5-((1-(3-fluoropropyl)pyrrolidin-3-yl)oxy)phenyl)-8-phenyl-6,7-dihydro-5H-benzo[7]annulene-3-carboxylic acid, hydrochloride], for which the “% Degradation At 0.3 μM” value is on record as 77%.
On to `O=C(O)c1ccc2c(c1)CCCC(c1ccc(Cl)cc1Cl)=C2c1cccc(NC2CN(CCCF)C2)c1` [Compound 32, 8-(2,4-dichlorophenyl)-9-(3-((1-(3-fluoropropyl)azetidin-3-yl)amino)phenyl)-6,7-dihydro-5H-benzo[7]annulene-3-carboxylic acid], for which the “% Degradation At 0.3 μM” value stood at 70%.
Turning to `Cl.O=C(O)c1ccc2c(c1)CCCC(c1ccc(Cl)cc1Cl)=C2c1cc(O[C@@H]2CCN(CCCF)C2)ccc1F` [Compound 27, (R)-8-(2,4-dichlorophenyl)-9-(2-fluoro-5-((1-(3-fluoropropyl)pyrrolidin-3-yl)oxy)phenyl)-6,7-dihydro-5H-benzo[7]annulene-3-carboxylic acid hydrochloride], the “% Degradation At 0.3 μM” value was 89%.
For the compound `Cl.O=C(O)c1ccc2c(c1)CCCC(c1ccccc1)=C2c1cccc(O[C@@H]2CCN(CCCF)C2)c1F` [Compound 19, (R)-9-(2-fluoro-3-((1-(3-fluoropropyl)pyrrolidin-3-yl)oxy)phenyl)-8-phenyl-6,7-dihydro-5H-benzo[7]annulene-3-carboxylic acid, hydrochloride], the “% Degradation At 0.3 μM” value is reported as 82%.
Turning to `O=C(O)c1ccc2c(c1)CCCC(c1ccc(Cl)cc1Cl)=C2c1cccc(CC2CCN(CCCF)C2)c1` (single isomer, unassigned; isomer 1) [Compound 28, 8-(2,4-dichlorophenyl)-9-(3-((1-(3-fluoropropyl)pyrrolidin-3-yl)methyl)phenyl)-6,7-dihydro-5H-benzo[7]annulene-3-carboxylic acid, Isomer 1], the “% Degradation At 0.3 μM” value is recorded as 87%.
On the same count and under the same terms, the same measure for `Cl.O=C(O)c1ccc2c(c1)CCCC(C1CCC(F)(F)CC1)=C2c1cccc(O[C@@H]2CCN(CCCF)C2)c1` [Compound 10, (R)-8-(4,4-difluorocyclohexyl)-9-(3-((1-(3-fluoropropyl)pyrrolidin-3-yl)oxy)phenyl)-6,7-dihydro-5H-benzo[7]annulene-3-carboxylic acid hydrochloride]: 85%; for `Cl.O=C(O)c1ccc2c(c1)CCCC(c1ccccc1Cl)=C2c1cccc(O[C@@H]2CCN(CCCF)C2)c1F` [Compound 20, (R)-8-(2-chlorophenyl)-9-(2-fluoro-3-((1-(3-fluoropropyl)pyrrolidin-3-yl)oxy)phenyl)-6,7-dihydro-5H-benzo[7]annulene-3-carboxylic acid, hydrochloride]: 88%; for `CC1CCc2cc(C(=O)O)ccc2C(c2cccc(OC3CCN(CCCF)C3)c2)=C1c1cccc(Cl)c1` (single isomer, unassigned; isomer 2) [Compound 37]: 67%.
In the case of `CC1CCC(C2=C(c3cccc(OC4CCN(CCCF)C4)c3)c3ccc(C(=O)O)cc3CCC2)CC1` (single isomer, unassigned; isomer 2) [Compound 12], the “% Degradation At 0.3 μM” value was 84%.
Consider `Cl.O=C(O)c1ccc2c(c1)CCC(c1ccc(Cl)cc1Cl)=C2c1cccc(O[C@@H]2CCN(CCCF)C2)c1` [Compound 40, (R)-6-(2,4-dichlorophenyl)-5-(3-((1-(3-fluoropropyl)pyrrolidin-3-yl)oxy)phenyl)-7,8-dihydronaphthalene-2-carboxylic acid hydrochloride], for which the “% Degradation At 0.3 μM” value is listed as 88%.
In the case of `CC1CCc2cc(C(=O)O)ccc2C(c2cccc(OC3CCN(CCCF)C3)c2)=C1c1cccc(Cl)c1` (single isomer, unassigned; isomer 1) [Compound 36], the “% Degradation At 0.3 μM” value stood at 69%.
In the case of `Cl.O=C(O)c1ccc2c(c1)CCCC(c1ccc(Cl)cc1Cl)=C2c1cccc(OC2CN(CCCF)C2)c1` [Compound 30, 8-(2,4-dichlorophenyl)-9-(3-((1-(3-fluoropropyl)azetidin-3-yl)oxy)phenyl)-6,7-dihydro-5H-benzo[7]annulene-3-carboxylic acid hydrochloride], the “% Degradation At 0.3 μM” value turned out to be 55%.
As for `Cc1ccc(C2=C(c3cccc(O[C@@H]4CCN(CCCF)C4)c3)c3ccc(C(=O)O)cc3CCC2)c(F)c1` [Compound 7, (R)-8-(2-fluoro-4-methylphenyl)-9-(3-((1-(3-fluoropropyl)pyrrolidin-3-yl)oxy)phenyl)-6,7-dihydro-5H-benzo[7]annulene-3-carboxylic acid], the “% Degradation At 0.3 μM” value is given as 85%.
Still for that read-out and setting: under `O=C(O)c1ccc2c(c1)CCCC(c1ccc(Cl)cc1Cl)=C2c1cccc(O[C@H]2CCN(CCCF)C2)c1` [Compound 1a, (S)-8-(2,4-dichlorophenyl)-9-(3-((1-(3-fluoropropyl)pyrrolidin-3-yl)oxy)phenyl)-6,7-dihydro-5H-benzo[7]annulene-3-carboxylic acid] stands “Inactive”.
For the compound `Cc1ccc(O[C@@H]2CCN(CCCF)C2)cc1C1=C(c2ccccc2Cl)CCCc2cc(C(=O)O)ccc21` [Compound 23, (R)-8-(2-chlorophenyl)-9-(5-((1-(3-fluoropropyl)pyrrolidin-3-yl)oxy)-2-methylphenyl)-6,7-dihydro-5H-benzo[7]annulene-3-carboxylic acid], the “% Degradation At 0.3 μM” value is on record as 84%.
On the same count and under the same terms, under `O=C(O)c1ccc2c(c1)CCCC(c1ccc(F)cc1Cl)=C2c1cccc(O[C@@H]2CCN(CCCF)C2)c1` [Compound 5, (R)-8-(2-chloro-4-fluorophenyl)-9-(3-((1-(3-fluoropropyl)pyrrolidin-3-yl)oxy)phenyl)-6,7-dihydro-5H-benzo[7]annulene-3-carboxylic acid] stands 91%.

The same experiment, now with this note: text statement on comparative compounds.
As to `O=C(O)c1ccc2c(c1)CCCC(c1ccc(Cl)cc1Cl)=C2c1cccc(O[C@H]2CCN(CCCF)C2)c1` [Compound 1a, (S)-8-(2,4-dichlorophenyl)-9-(3-((1-(3-fluoropropyl)pyrrolidin-3-yl)oxy)phenyl)-6,7-dihydro-5H-benzo[7]annulene-3-carboxylic acid], the “degradation activity for estrogen receptors (in words)” value is “inactive”.
